Laboratory results from patent publication US20180221306A1, “PHARMACEUTICAL COMPOSITIONS OF 5-HYDROXY-2-METHYLNAPHTHALENE-1,4-DIONE” (PellFiCure Pharmaceuticals, Inc., priority 2016, published 2018).
Marks after values point to notes of the source that are not given here.

Columns and labels:
[1] = Forced degradation: solution stability in aqueous media (HPLC)
mice = settings: over a period of 14 days; cited from earlier work

For CC1=CC(=O)c2c(O)cccc2C1=O [Compound I, 5-hydroxy-2-methylnaphthalene-1,4-dione], the “Solution Stability in Aqueous Media, Purity” value (“Solution Stability” below) ([1]; pH 3, 50% DMSO, 40° C./75% RH, t = 2 week) was 72.78 % Area, the “Solution Stability” value ([1]; pH 4, 50% DMSO, 25° C./60% RH, t = 0) was 98.73 % Area and the “Solution Stability” value ([1]; pH 4, 50% DMSO, 25° C./60% RH, t = 1 week, precipitation observed) was 96.77^‡ % Area. For the same molecule, the “Solution Stability” value ([1]; pH 4, 50% DMSO, 25° C./60% RH, t = 2 week, precipitation observed) was 93.81^‡ % Area, the “Solution Stability” value ([1]; pH 4, 50% DMSO, 40° C./75% RH, t = 1 week, precipitation observed) was 87.32^‡ % Area and the “Solution Stability” value ([1]; pH 4, 50% DMSO, 40° C./75% RH, t = 2 week, precipitation observed) was 73.78^‡ % Area. The “Solution Stability” value ([1]; pH 5, 50% DMSO, 25° C./60% RH, t = 0) was 98.46 % Area, the “Solution Stability” value ([1]; pH 5, 50% DMSO, 25° C./60% RH, t = 1 week, precipitation observed) was 92.26^‡ % Area and the “Solution Stability” value ([1]; pH 5, 50% DMSO, 25° C./60% RH, t = 2 week, precipitation observed) was 83.09^‡ % Area. The “Solution Stability” value ([1]; pH 5, 50% DMSO, 40° C./75% RH, t = 1 week, precipitation observed) was 58.98^‡ % Area, the “Solution Stability” value ([1]; pH 5, 50% DMSO, 40° C./75% RH, t = 2 week, precipitation observed) was 29.30^‡ % Area and the “Solution Stability” value ([1]; pH 6, 50% DMSO, 25° C./60% RH, t = 0) was 97.78 % Area. The “Solution Stability” value ([1]; pH 6, 50% DMSO, 25° C./60% RH, t = 1 week) was 69.37 % Area, the “Solution Stability” value ([1]; pH 6, 50% DMSO, 25° C./60% RH, t = 2 week, precipitation observed) was 44.92^‡ % Area and the “Solution Stability” value ([1]; pH 6, 50% DMSO, 40° C./75% RH, t = 1 week) was <10 % Area. For the same molecule, the “Solution Stability” value ([1]; pH 6, 50% DMSO, 40° C./75% RH, t = 2 week, precipitation observed) was <10^‡ % Area, the “Solution Stability” value ([1]; pH 7, 50% DMSO, 25° C./60% RH, t = 0) was 91.09 % Area and the “Solution Stability” value ([1]; pH 7, 50% DMSO, 25° C./60% RH, t = 1 week) was <10 % Area. The “Solution Stability” value ([1]; pH 7, 50% DMSO, 25° C./60% RH, t = 2 week, precipitation observed) was <10^‡ % Area, the “Solution Stability” value ([1]; pH 7, 50% DMSO, 40° C./75% RH, t = 1 week) was <10 % Area and the “Solution Stability” value ([1]; pH 7, 50% DMSO, 40° C./75% RH, t = 2 week, precipitation observed) was <10^‡ % Area. For the same molecule, the “Solution Stability” value ([1]; pH 8, 50% DMSO, 25° C./60% RH, t = 0) was 81.64 % Area, the “Solution Stability” value ([1]; pH 8, 50% DMSO, 25° C./60% RH, t = 1 week) was <10 % Area and the “Solution Stability” value ([1]; pH 8, 50% DMSO, 25° C./60% RH, t = 2 week, precipitation observed) was <10^‡ % Area. For the same molecule, the “Solution Stability” value ([1]; pH 8, 50% DMSO, 40° C./75% RH, t = 1 week) was <10 % Area, the “Solution Stability” value ([1]; pH 8, 50% DMSO, 40° C./75% RH, t = 2 week, precipitation observed) was <10^‡ % Area and the “Solution Stability” value ([1]; pH 9, 50% DMSO, 25° C./60% RH, t = 0) was 89.84 % Area. For the same molecule, the “Solution Stability” value ([1]; pH 9, 50% DMSO, 25° C./60% RH, t = 1 week) was 30.06 % Area, the “Solution Stability” value ([1]; pH 9, 50% DMSO, 25° C./60% RH, t = 2 week, precipitation observed) was 7.58^‡ % Area and the “Solution Stability” value ([1]; pH 9, 50% DMSO, 40° C./75% RH, t = 1 week) was <10 % Area. The “Solution Stability” value ([1]; pH 9, 50% DMSO, 40° C./75% RH, t = 2 week, precipitation observed) was <10^‡ % Area, the “Solution Stability” value ([1]; pH 10, 50% DMSO, 25° C./60% RH, t = 0) was 88.46 % Area and the “Solution Stability” value ([1]; pH 10, 50% DMSO, 25° C./60% RH, t = 1 week) was 37.43 % Area. The “Solution Stability” value ([1]; pH 10, 50% DMSO, 25° C./60% RH, t = 2 week, precipitation observed) was <10^‡ % Area, the “Solution Stability” value ([1]; pH 10, 50% DMSO, 40° C./75% RH, t = 1 week, precipitation observed) was <10^‡ % Area and the “Solution Stability” value ([1]; pH 10, 50% DMSO, 40° C./75% RH, t = 2 week, precipitation observed) was <10^‡ % Area. The “Solution Stability” value ([1]; water, 25° C./60% RH, t = 0) was 96.33 % Area, the “Solution Stability” value ([1]; water, 25° C./60% RH, t = 1 week, precipitation observed) was 66.97^‡ % Area and the “Solution Stability” value ([1]; water, 25° C./60% RH, t = 2 week, precipitation observed) was 53.76^‡ % Area. For the same molecule, the “Solution Stability” value ([1]; water, 40° C./75% RH, t = 1 week, precipitation observed) was 45.09^‡ % Area, the “Solution Stability” value ([1]; water, 40° C./75% RH, t = 2 week, precipitation observed) was 44.20^‡ % Area and the LD50 (mice) was 8 mg/kg.
